Assay results reported in the OligoGym collection.
“And” between values parts separate entries of the source, which are not always exact repeats. Equal entries are not always repeated. HELM strings list units from the 5' end as sugar, base in round brackets, then linkage (d deoxyribose, r ribose, m 2'-O-methyl, p phosphodiester). Strings are as the collection lists them, not checked against the first reports. ss, as = sense and antisense strand; [lna] = locked nucleic acid (LNA); [hna] = hexitol nucleic acid; [fl2r] = 2'-fluoro

Conditions: siRNA
Further: test system not given here.

In order of rising target mRNA knockdown:
1. RNA1{[lna](G)p.[lna](C)p.[lna](T)p.r(G)p.r(A)p.r(C)p.[lna](C)p.r(C)p.r(U)p.[lna](G)p.r(A)p.r(A)p.r(G)p.[lna](T)p.[lna](T)p.r(C)p.r(A)p.r(U)p.r(C)p.[lna](T)p.[lna](T)}|RNA2{r(G)p.r(A)p.r(U)p.r(G)p.r(A)p.r(A)p.r(C)p.r(U)p.r(U)p.r(C)p.r(A)p.r(G)p.r(G)p.r(G)p.r(U)p.r(C)p.r(A)p.r(G)p.r(C)p.[lna](T)p.[lna](T)}$$$RNA1{StrandType:ss}|RNA2{StrandType:as}$  0%
2. RNA1{[hna](G)p.[hna](A)p.[hna](C)p.r(G)p.r(U)p.r(A)p.r(A)p.r(A)p.r(C)p.r(G)p.r(G)p.r(C)p.r(C)p.r(A)p.r(C)p.r(A)p.r(A)p.[hna](G)p.[hna](U)p.r(U)p.d(T)}|RNA2{r(A)p.r(C)p.[lna](T)p.r(U)p.r(G)p.[lna](T)p.r(G)p.r(G)p.r(C)p.r(C)p.r(G)p.r(U)p.r(U)p.[lna](T)p.r(A)p.r(C)p.r(G)p.[lna](T)p.r(C)p.[lna](G)p.[lna](C)}$$$RNA1{StrandType:ss}|RNA2{StrandType:as}$  5.4%
3. RNA1{[hna](G)p.[hna](A)p.[hna](C)p.r(G)p.r(U)p.r(A)p.r(A)p.r(A)p.r(C)p.r(G)p.r(G)p.r(C)p.r(C)p.r(A)p.r(C)p.r(A)p.r(A)p.[hna](G)p.[hna](U)p.[hna](U)p.d(T)}|RNA2{r(A)p.[hna](C)p.r(U)p.r(U)p.r(G)p.r(U)p.r(G)p.r(G)p.[hna](C)p.r(C)p.r(G)p.r(U)p.r(U)p.r(U)p.r(A)p.r(C)p.r(G)p.[hna](U)p.[hna](C)p.[hna](G)p.d(T)}$$$RNA1{StrandType:ss}|RNA2{StrandType:as}$  35.8%
4. RNA1{[fl2r](U)p.r(C)p.[fl2r](C)p.r(G)p.[fl2r](G)p.r(C)p.[fl2r](U)p.r(A)p.[fl2r](A)p.r(C)p.[fl2r](U)p.r(C)p.[fl2r](U)p.r(G)p.[fl2r](A)p.r(G)p.[fl2r](G)p.r(A)p.[fl2r](C)p.r(T)p.r(T)}|RNA2{r(G)p.r(U)p.r(C)p.r(C)p.r(U)p.r(C)p.r(A)p.r(G)p.r(A)p.r(G)p.r(U)p.r(U)p.r(A)p.r(G)p.r(C)p.r(C)p.r(G)p.r(G)p.r(A)p.r(T)p.r(T)}$$$RNA1{StrandType:ss}|RNA2{StrandType:as}$  41%
5. RNA1{[fl2r](U)p.r(C)p.[fl2r](C)p.r(U)p.[fl2r](C)p.r(G)p.[fl2r](U)p.r(C)p.[fl2r](G)p.r(U)p.[fl2r](C)p.r(U)p.[fl2r](G)p.r(U)p.[fl2r](U)p.r(C)p.[fl2r](U)p.r(A)p.[fl2r](A)p.r(T)p.r(T)}|RNA2{r(U)p.r(U)p.r(A)p.r(G)p.r(A)p.r(A)p.[fl2r](C)p.r(A)p.r(G)p.r(A)p.[fl2r](C)p.r(G)p.r(A)p.[fl2r](C)p.r(G)p.r(A)p.r(G)p.r(G)p.r(A)p.r(T)p.r(T)}$$$RNA1{StrandType:ss}|RNA2{StrandType:as}$  49%
6. RNA1{[lna](A)p.r(C)p.r(U)p.r(G)p.r(U)p.r(C)p.r(A)p.r(A)p.r(A)p.r(C)p.r(C)p.r(C)p.r(G)p.r(G)p.r(U)p.r(A)p.r(A)p.r(U)p.r(U)p.[lna](T)p.[lna](T)}|RNA2{r(A)p.r(A)p.r(U)p.r(U)p.r(A)p.r(C)p.r(C)p.r(G)p.r(G)p.r(G)p.r(U)p.r(U)p.r(U)p.r(G)p.r(A)p.r(C)p.r(A)p.r(G)p.r(U)p.[lna](T)p.[lna](T)}$$$RNA1{StrandType:ss}|RNA2{StrandType:as}$  52%
7. RNA1{[fl2r](U)p.r(U)p.[fl2r](C)p.r(U)p.[fl2r](A)p.r(A)p.[fl2r](C)p.r(C)p.[fl2r](G)p.r(G)p.[fl2r](G)p.r(C)p.[fl2r](A)p.r(G)p.[fl2r](C)p.r(U)p.[fl2r](U)p.r(C)p.[fl2r](U)p.r(T)p.r(T)}|RNA2{r(A)p.r(G)p.r(A)p.r(A)p.r(G)p.r(C)p.r(U)p.r(G)p.r(C)p.r(C)p.r(C)p.r(G)p.r(G)p.r(U)p.r(U)p.r(A)p.r(G)p.r(A)p.r(A)p.r(T)p.r(T)}$$$RNA1{StrandType:ss}|RNA2{StrandType:as}$  61%
8. RNA1{[lna](C)p.r(U)p.r(A)p.r(A)p.r(G)p.r(G)p.r(A)p.r(C)p.r(C)p.r(U)p.r(A)p.r(A)p.r(C)p.r(A)p.r(A)p.r(A)p.r(G)p.r(U)p.r(U)p.r(U)p.r(U)}|RNA2{r(A)p.r(A)p.r(C)p.r(U)p.r(U)p.r(U)p.r(G)p.r(U)p.r(U)p.r(A)p.r(G)p.r(G)p.r(U)p.r(C)p.r(C)p.r(U)p.r(U)p.r(A)p.r(G)p.r(U)p.r(U)}$$$RNA1{StrandType:ss}|RNA2{StrandType:as}$  64%
9. RNA1{[fl2r](U)p.r(U)p.[fl2r](A)p.r(C)p.[fl2r](C)p.r(C)p.[fl2r](C)p.r(G)p.[fl2r](A)p.r(U)p.[fl2r](U)p.r(C)p.[fl2r](A)p.r(G)p.[fl2r](C)p.r(C)p.[fl2r](U)p.r(C)p.[fl2r](U)p.r(T)p.r(T)}|RNA2{r(A)p.r(G)p.r(A)p.r(G)p.r(G)p.r(C)p.r(U)p.r(G)p.r(A)p.r(A)p.r(U)p.r(C)p.r(G)p.r(G)p.r(G)p.r(G)p.r(U)p.r(A)p.r(A)p.r(T)p.r(T)}$$$RNA1{StrandType:ss}|RNA2{StrandType:as}$  67%
10. RNA1{[hna](G)p.[hna](A)p.[hna](C)p.r(G)p.r(U)p.r(A)p.r(A)p.r(A)p.r(C)p.r(G)p.r(G)p.r(C)p.r(C)p.r(A)p.r(C)p.r(A)p.r(A)p.[hna](G)p.[hna](U)p.[hna](U)p.d(T)}|RNA2{r(A)p.[hna](C)p.r(U)p.r(U)p.r(G)p.r(U)p.r(G)p.r(G)p.r(C)p.r(C)p.r(G)p.r(U)p.r(U)p.r(U)p.r(A)p.r(C)p.r(G)p.[hna](U)p.[hna](C)p.[hna](G)p.d(T)}$$$RNA1{StrandType:ss}|RNA2{StrandType:as}$  77.4%
11. RNA1{[hna](G)p.[hna](A)p.[hna](C)p.r(G)p.r(U)p.r(A)p.r(A)p.r(A)p.r(C)p.r(G)p.r(G)p.r(C)p.r(C)p.r(A)p.r(C)p.r(A)p.r(A)p.[hna](G)p.[hna](U)p.[hna](U)p.d(T)}|RNA2{r(A)p.r(C)p.[hna](U)p.r(U)p.r(G)p.r(U)p.r(G)p.r(G)p.r(C)p.r(C)p.r(G)p.r(U)p.r(U)p.r(U)p.r(A)p.r(C)p.r(G)p.[hna](U)p.[hna](C)p.[hna](G)p.d(T)}$$$RNA1{StrandType:ss}|RNA2{StrandType:as}$  80.6%
12. RNA1{[hna](G)p.[hna](A)p.[hna](C)p.r(G)p.r(U)p.r(A)p.r(A)p.r(A)p.r(C)p.r(G)p.r(G)p.r(C)p.r(C)p.r(A)p.r(C)p.r(A)p.r(A)p.[hna](G)p.[hna](U)p.[hna](U)p.d(T)}|RNA2{[fl2r](A)p.m(C)p.[fl2r](U)p.m(U)p.[fl2r](G)p.m(U)p.[fl2r](G)p.m(G)p.[fl2r](C)p.m(C)p.[fl2r](G)p.m(U)p.[fl2r](U)p.m(U)p.[fl2r](A)p.m(C)p.[fl2r](G)p.m(U)p.[fl2r](C)p.m(G)p.[fl2r](C)}$$$RNA1{StrandType:ss}|RNA2{StrandType:as}$  81.8%
13. RNA1{[lna](A)p.r(A)p.r(A)p.r(C)p.r(A)p.r(U)p.r(G)p.r(C)p.r(A)p.r(G)p.r(A)p.r(A)p.r(A)p.r(A)p.r(U)p.r(G)p.r(C)p.r(U)p.r(G)p.[lna](T)p.[lna](T)}|RNA2{r(C)p.r(A)p.r(G)p.r(C)p.r(A)p.r(U)p.r(U)p.r(U)p.r(U)p.r(C)p.r(U)p.r(G)p.r(C)p.r(A)p.r(U)p.r(G)p.r(U)p.r(U)p.r(U)p.r(T)p.r(T)}$$$RNA1{StrandType:ss}|RNA2{StrandType:as}$  82%
14. RNA1{[hna](G)p.[hna](A)p.[hna](C)p.r(G)p.r(U)p.r(A)p.r(A)p.r(A)p.r(C)p.r(G)p.r(G)p.r(C)p.r(C)p.r(A)p.r(C)p.r(A)p.r(A)p.[hna](G)p.[hna](U)p.[hna](U)p.d(T)}|RNA2{r(A)p.m(C)p.r(U)p.r(U)p.r(G)p.r(U)p.r(G)p.r(G)p.r(C)p.r(C)p.r(G)p.r(U)p.r(U)p.r(U)p.r(A)p.r(C)p.r(G)p.r(U)p.r(C)p.r(G)p.r(C)}$$$RNA1{StrandType:ss}|RNA2{StrandType:as}$  84%
15. RNA1{[hna](G)p.[hna](A)p.[hna](C)p.r(G)p.r(U)p.r(A)p.r(A)p.r(A)p.r(C)p.r(G)p.r(G)p.r(C)p.r(C)p.r(A)p.r(C)p.r(A)p.r(A)p.[hna](G)p.[hna](U)p.[hna](U)p.d(T)}|RNA2{r(A)p.r(C)p.r(U)p.r(U)p.r(G)p.r(U)p.r(G)p.r(G)p.r(C)p.r(C)p.r(G)p.r(U)p.r(U)p.r(U)p.r(A)p.r(C)p.r(G)p.[hna](U)p.[hna](C)p.[hna](G)p.d(T)}$$$RNA1{StrandType:ss}|RNA2{StrandType:as}$  84.6%
16. RNA1{[hna](G)p.[hna](A)p.[hna](C)p.r(G)p.r(U)p.r(A)p.r(A)p.r(A)p.r(C)p.r(G)p.r(G)p.r(C)p.r(C)p.r(A)p.r(C)p.r(A)p.r(A)p.[hna](G)p.[hna](U)p.r(U)p.d(T)}|RNA2{r(A)p.r(C)p.r(U)p.r(U)p.r(G)p.r(U)p.r(G)p.r(G)p.r(C)p.r(C)p.r(G)p.r(U)p.r(U)p.r(U)p.r(A)p.r(C)p.r(G)p.r(U)p.[lna](C)p.[lna](G)p.r(C)}$$$RNA1{StrandType:ss}|RNA2{StrandType:as}$  84.7%
17. RNA1{[hna](G)p.[hna](A)p.[hna](C)p.r(G)p.r(U)p.r(A)p.r(A)p.r(A)p.r(C)p.r(G)p.r(G)p.r(C)p.r(C)p.r(A)p.r(C)p.r(A)p.r(A)p.[hna](G)p.[hna](U)p.[hna](U)p.d(T)}|RNA2{r(A)p.r(C)p.r(U)p.r(U)p.r(G)p.r(U)p.r(G)p.r(G)p.r(C)p.r(C)p.r(G)p.r(U)p.r(U)p.r(U)p.r(A)p.r(C)p.r(G)p.r(U)p.r(C)p.r(G)p.r(C)}$$$RNA1{StrandType:ss}|RNA2{StrandType:as}$  89%

With “RNA1{[lna](A)p.r(U)p.r(C)p.r(U)p.r(G)p.r(A)p.r(A)p.r(G)p.r(A)p.r(A)p.r(G)p.r(G)p.r(A)p.r(G)p.r(A)p.r(A)p.r(A)p.r(A)p.r(A)p.[lna](T)p.[lna](T)}|RNA2{[lna](T)p.r(U)p.r(U)p.r(U)p.r(U)p.r(C)p.r(U)p.r(C)p.r(C)p.r(U)p.r(U)p.r(C)p.r(U)p.r(U)p.r(C)p.r(A)p.r(G)p.r(A)p.r(U)p.[lna](T)p.[lna](T)}$$$RNA1{StrandType:ss}|RNA2{StrandType:as}$” the target mRNA knockdown was 65% and 75%.
For “RNA1{[lna](A)p.r(U)p.r(C)p.r(U)p.r(G)p.r(A)p.r(A)p.r(G)p.r(A)p.r(A)p.r(G)p.r(G)p.r(A)p.r(G)p.r(A)p.r(A)p.r(A)p.r(A)p.r(A)p.[lna](T)p.[lna](T)}|RNA2{r(U)p.r(U)p.r(U)p.r(U)p.r(U)p.r(C)p.r(U)p.r(C)p.r(C)p.r(U)p.r(U)p.r(C)p.r(U)p.r(U)p.r(C)p.r(A)p.r(G)p.r(A)p.r(U)p.[lna](T)p.[lna](T)}$$$RNA1{StrandType:ss}|RNA2{StrandType:as}$”, the target mRNA knockdown was 93% and 95%.
